Test results reported in patent US20180289655A1, “Methods and Compositions for the Intravenous Administration of Fumarates for the Treatment of Neurological Diseases” (Biogen MA Inc., priority 2015, published 2018).
Entries after “also recorded” stand apart in the source; their conditions may differ. Counter-ions that a name gives are not always drawn. Like-named read-outs stand apart in the source and are kept apart here.

How the values were obtained:
[1] = Solution stability of DMF in aqueous solution (HPLC); format: physicochemical; design: DMF assay: unit not given here
Method: Solution stability studies were conducted using 0.2 mg/ml concentration solutions, which were achieved by mixing equal volumes of the stock solution and individual study media. […] Samples stored at 37° C. or ambient temperature were pulled at predetermined time points, and analyzed by HPLC.

[2] = Solubility of DMF in aqueous media at 37° C.; format: physicochemical; settings: thermodynamic from solid
[3] = tested on: prototypical Nrf2 response genes (Akr1b8, Gclc, Hmox1, Nqo1, Txnrd1, Osgin1); experiment: qRT-PCR of Nrf2 response genes in tissues after DMF PO or IV; format: in vivo, Sprague-Dawley rats; settings: for Nrf2 genes significantly modulated, forebrain / Nrf2 genes significantly modulated, jejunum / Nrf2 genes significantly modulated, kidney / Nrf2 genes significantly modulated, cerebellum / Nrf2 genes significantly modulated, spleen: 2 and 6 hours, vs vehicle
Method: On Day 5 of the study 3 time points were evaluated: 10 minutes, 2 hours, and 6 hours after dosing, as illustrated in the timeline. At each time point, 5 animals from each group were sacrificed. At the 2 and 6 hour time points, the tissue samples from groups E, F, I, and J from each animal were split, with half of the tissue being processed for MMF exposure, and half processed for qRT-PCR. Note vehicle groups (C, D, G, and H) were not processed for MMF measurement and only used for qRT-PCR.
Two and 6 hours after dosing, cohorts of animals from Groups C, D, E and F and G, H, I and J, respectively, were sacrificed and tissues (forebrain, cerebellum, jejunum, kidney, and spleen) were collected for RNA analysis by qRT-PCR for expression of prototypical Nrf2 response genes.
For RNA preparation, frozen tissues were placed in 2 mL RNAse-free 96-well blocks with 1.5 mL QIAzol Lysis Reagent (QIAgen) and a 3.2 mm stainless steel bead (BioSpec Products, Bartlesville, Okla.). Tissues were disrupted for four cycles of 45 seconds in a Mini-Beadbeater (Biospec Products). RNA was extracted in chloroform and the aqueous phase was mixed with an equal volume of 70% ethanol. Extracted RNA was applied to RNeasy 96 plates and purified by the spin method according to the manufacturer's protocol (RNeasy 96 Universal Tissue Protocol, QIAgen, Hilden Germany).
Samples were reverse-transcribed into cDNA according to the manufacturer's protocols (Life Technologies, Carlsbad, Calif.) and analyzed by real-time polymerase chain reaction (qPCR). Rat target gene primers and 6-FAM™ dye-labeled TaqMan® MGB™ probes (Life Technologies) were used. Reactions containing 100 ng of cDNA, 900 nM of each primer, and 250 nM TaqMan probes were cycled on a QuantStudio 12 k-flex system (Life Technologies) once for 10 minutes at 95° C., followed by 40 cycles of 95° C. for 10 seconds and 60° C. for 1 minute. All samples were measured in triplicate with Gapdh as a normalizing gene. Taqman primer/probe sets from Life Technologies included: Akr1b8 (Rn00756513_m1); Gclc (Rn00689046_m1); Hmox1 (Rn01536933_m1); Nqo1 (Rn00566528_m1); Txnrd1 (Rn01503798_m1); Osgin1 (Rn00593303_m1) and Gapdh (Rn01775763_g1). Final analysis was performed using the comparative CT method to calculate fold changes and samples were normalized relative to vehicle controls at each time point. In all graphs, the mean fold-change (±standard deviation) is depicted.

[4] = SGF (without pepsin), 0.2 mg/ml, initial
[5] = SGF (without pepsin), 37° C., 24 hr
[6] = SGF (without pepsin), ambient temperature, 24 hr
[7] = SGF (without pepsin), ambient temperature, 48 hr
[8] = SGF (without pepsin), ambient temperature, 72 hr
[9] = SIF (without pancreatin), 0.2 mg/ml, initial
[10] = SIF (without pancreatin), 37° C., 24 hr
[11] = SIF (without pancreatin), ambient temperature, 24 hr
[12] = SIF (without pancreatin), ambient temperature, 48 hr
[13] = SIF (without pancreatin), ambient temperature, 72 hr
[14] = Water, ambient temperature, 24 hr
[15] = Water, ambient temperature, 48 hr
[16] = Water, ambient temperature, 72 hr
[17] = pH 2 Citrate Buffer, 0.2 mg/ml, initial
[18] = pH 2 Citrate Buffer, 37° C., 24 hr
[19] = pH 2 Citrate Buffer, ambient temperature, 24 hr
[20] = pH 2 Citrate Buffer, ambient temperature, 48 hr
[21] = pH 2 Citrate Buffer, ambient temperature, 72 hr
[22] = pH 4 Citrate Buffer, 0.2 mg/ml, initial
[23] = pH 4 Citrate Buffer, 37° C., 24 hr
[24] = pH 4 Citrate Buffer, ambient temperature, 24 hr
[25] = pH 4 Citrate Buffer, ambient temperature, 48 hr
[26] = pH 4 Citrate Buffer, ambient temperature, 72 hr
[27] = pH 6 Citrate Buffer, 0.2 mg/ml, initial
[28] = pH 6 Citrate Buffer, 37° C., 24 hr
[29] = pH 6 Citrate Buffer, ambient temperature, 24 hr
[30] = pH 6 Citrate Buffer, ambient temperature, 48 hr
[31] = pH 6 Citrate Buffer, ambient temperature, 72 hr
[32] = pH 8 Borate Buffer, 0.2 mg/ml, initial
[33] = pH 8 Borate Buffer, 37° C., 24 hr
[34] = pH 8 Borate Buffer, ambient temperature, 24 hr
[35] = pH 10 Borate Buffer, 0.2 mg/ml, initial
[36] = pH 10 Borate Buffer, 37° C., 24 hr
[37] = pH 10 Borate Buffer, ambient temperature, 24 hr

COC(=O)/C=C/C(=O)OC [DMF, dimethyl fumarate]
Stability of DMF in solution at higher pH ([1]; 37° C., aqueous media): decreased rapidly as the solution pH went above 7
pH of maximum stability of DMF in solution ([1]; 37° C., aqueous media): ~4
DMF area % [1, 4]: 99.3 area %
DMF assay [1, 4]: 102.9
DMF area % [1, 5]: 92.2 area %
DMF assay [1, 5]: 91.1
DMF area % [1, 6]: 96.6 area %
DMF assay [1, 6]: (95.2)
DMF area % [1, 7]: 95.6 area %
DMF assay [1, 7]: (92.5)
DMF area % [1, 8]: 95.4 area %
DMF assay [1, 8]: (91.6)
DMF area % [1, 9]: 99.3 area %
DMF assay [1, 9]: 100.9
DMF area % [1, 10]: 29.5 area %
DMF assay [1, 10]: 27.8
DMF area % [1, 11]: 68.7 area %
DMF assay [1, 11]: (68.3)
DMF area % [1, 12]: 64.5 area %
DMF assay [1, 12]: (60.3)
DMF area % [1, 13]: 62.2 area %
DMF assay [1, 13]: (59.0)
DMF area % ([1]; Water, 0.2 mg/ml, initial): 96.6 area %
DMF assay ([1]; Water, 0.2 mg/ml, initial): 98.9
DMF area % ([1]; Water, 37° C., 24 hr): 77.4 area %
DMF assay ([1]; Water, 37° C., 24 hr): 73.9
DMF area % [1, 14]: 84.8 area %
DMF assay [1, 14]: (81.6)
DMF area % [1, 15]: 85.1 area %
DMF assay [1, 15]: (80.2)
DMF area % [1, 16]: 83.5 area %
DMF assay [1, 16]: (79.3)
DMF area % [1, 17]: 99.5 area %
DMF assay [1, 17]: 101.0
DMF area % [1, 18]: 97.9 area %
DMF assay [1, 18]: 96.0
DMF area % [1, 19]: 99.1 area %
DMF assay [1, 19]: (94.7)
DMF area % [1, 20]: 98.9 area %
DMF assay [1, 20]: (93.2)
DMF area % [1, 21]: 98.7 area %
DMF assay [1, 21]: (92.0)
DMF area % [1, 22]: 99.8 area %
DMF assay [1, 22]: 101.9
DMF area % [1, 23]: 99.6 area %
DMF assay [1, 23]: 100.4
DMF area % [1, 24]: 99.6 area %
DMF assay [1, 24]: (97.2)
DMF area % [1, 25]: 99.2 area %
DMF assay [1, 25]: (98.5)
DMF area % [1, 26]: 99.6 area %
DMF assay [1, 26]: (93.9)
DMF area % [1, 27]: 100 area %
DMF assay [1, 27]: 101.4
DMF area % [1, 28]: 92.6 area %
DMF assay [1, 28]: 91.8
DMF area % [1, 29]: 97.5 area %
DMF assay [1, 29]: (90.7)
DMF area % [1, 30]: 95.3 area %
DMF assay [1, 30]: (92.5)
DMF area % [1, 31]: 96.1 area %
DMF assay [1, 31]: (88.4)
DMF area % [1, 32]: 98.6 area %
DMF assay [1, 32]: 101.0
DMF area % [1, 33]: 17.2 area %
DMF assay [1, 33]: 15.9
DMF area % [1, 34]: 46.5 area %
DMF assay [1, 34]: (44.8)
DMF area % [1, 35]: 37.1 area %
DMF assay [1, 35]: 36.1
DMF area % [1, 36]: 0/0 area %
DMF assay [1, 36]: 0/0
DMF area % [1, 37]: 0/0 area %
DMF assay [1, 37]: 0/0
Degradation of DMF before initial HPLC determination ([1]; pH 10 borate buffer solution): more than half of DMF degraded before an initial concentration was able to be determined
solubility at 24 h ([2]; pH 2 citrate buffer, pH 2, aqueous buffer, pH 2 Citrate Buffer, pH 1.93, read-out: Solubility): 3770 µg/mL
solubility at 24 h ([2]; pH 2 citrate buffer, pH 2, aqueous buffer, pH 2 Citrate Buffer, read-out: Solubility Description): 1000 to 10000 µg/mL
solubility at 24 h ([2]; pH 4 citrate buffer, pH 4, aqueous buffer, pH 4 Citrate Buffer, pH 3.89, read-out: Solubility): 3320 µg/mL
solubility at 24 h ([2]; pH 4 citrate buffer, pH 4, aqueous buffer, pH 4 Citrate Buffer, read-out: Solubility Description): 1000 to 10000 µg/mL
solubility at 24 h ([2]; pH 6 citrate buffer, pH 6, aqueous buffer, pH 6 Citrate Buffer, pH 6.01, read-out: Solubility): 3470 µg/mL
solubility at 24 h ([2]; pH 6 citrate buffer, pH 6, aqueous buffer, pH 6 Citrate Buffer, read-out: Solubility Description): 1000 to 10000 µg/mL
solubility at 24 h ([2]; pH 8 borate buffer, pH 8, aqueous buffer, pH 8 Borate Buffer, pH 5.44, read-out: Solubility): 4020 µg/mL
solubility at 24 h ([2]; pH 8 borate buffer, pH 8, aqueous buffer, pH 8 Borate Buffer, read-out: Solubility Description): 1000 to 10000 µg/mL
solubility at 24 h ([2]; pH 10 borate buffer, pH 10, aqueous buffer, pH 10 Borate Buffer, pH 5.49, read-out: Solubility): 3570 µg/mL
solubility at 24 h ([2]; pH 10 borate buffer, pH 10, aqueous buffer, pH 10 Borate Buffer, read-out: Solubility Description): 1000 to 10000 µg/mL
solubility at 24 h ([2]; simulated gastric fluid (SGF, without pepsin), pH 6.9, simulated gastric fluid, SGF (without pepsin), pH 6.90, read-out: Solubility): 2950 µg/mL
solubility at 24 h ([2]; simulated gastric fluid without pepsin, pH 1.2, simulated gastric fluid, SGF (without pepsin), read-out: Solubility Description): 1000 to 10000 µg/mL
solubility at 24 h ([2]; simulated intestinal fluid (SIF, without pancreatin), pH 1.2, fassgf or other biorelevant, SIF (without pancreatin), pH 1.20, read-out: Solubility): 3110 µg/mL
solubility at 24 h ([2]; simulated intestinal fluid without pancreatin, pH 6.9, fassgf or other biorelevant, SIF (without pancreatin), read-out: Solubility Description): 1000 to 10000 µg/mL
solubility at 24 h ([2]; water, pH 5.2, water, Water, pH 5.20, read-out: Solubility): 2840 µg/mL
solubility at 24 h ([2]; water, pH 5.2, water, Water, read-out: Solubility Description): 1000 to 10000 µg/mL
Nrf2 genes significantly modulated, forebrain ([3]; DMF IV 30 mg/kg): significant modulation of Nqo1, Osgin1, Akr1b8, and Hmox1 at both 2 and 6 hours
Nrf2 genes significantly modulated, jejunum ([3]; DMF IV 30 mg/kg): significant increases were observed for Nqo1 and Hmox1 at 6 hours, and in Osgin1 expression at 2 hours
Nrf2 genes significantly modulated, kidney ([3]; DMF IV 30 mg/kg): significant modulation of Nqo1 and Txnrd1 at 2 and 6 hours, and Hmox1 only at 2 hours
Nrf2 genes significantly modulated, cerebellum ([3]; DMF IV 30 mg/kg, 30 mg/kg): significant modulation was observed for Nqo1, Osgin1, Akr1b8, and Hmox1 at both 2 and 6 hours; also recorded: significant increase in the transcriptional responses of Gclc and Txnrd1 in the cerebellum, but only at the later 6-hour time point
Nrf2 genes significantly modulated, spleen ([3]; DMF IV 30 mg/kg, 30 mg/kg): significant transcriptional increases were noted for Osgin1 at both 2 and 6 hour time points; also recorded: significant changes in Akr1b8 and Txnrd1 were observed only at the 2 hour time point; also recorded: A significant change in Nqo1 was also found 6 hours after DMF IV dosing
Hmox1 expression in spleen ([3]; DMF PO 100 mg/kg or IV 30 mg/kg): No changes were observed
Nrf2 genes significantly modulated, cerebellum ([3]; DMF PO 100 mg/kg): significant modulation of 3 genes in cerebellar tissue: Osgin1 at 2 and 6 hours, Akr1b8 at 2 hours, and Hmox1 at the 6 hour time point
Nrf2 genes significantly modulated, forebrain ([3]; DMF PO 100 mg/kg): modulation of only two genes: Osgin1 at 2 and 6 hours and Akr1b8 only at 2 hours
Nrf2 genes significantly modulated, spleen ([3]; DMF PO 100 mg/kg): significant increases in Nqo1, Osgin1, Akr1b8, Gclc, and Txnrd1 at both 2 and 6 hours
Nrf2 genes significantly modulated, jejunum ([3]; DMF PO 100 mg/kg, 100 mg/kg): significant increases in Osgin1, Akr1b8, and Txnrd1 at both 2 and 6 hours; also recorded: Nqo1 expression was increased after PO DMF dosing only at the 6-hour time point; also recorded: significant increases in Gclc and Hmox1 were observed at the 2-hour time point
Nrf2 genes significantly modulated, kidney ([3]; DMF PO 100 mg/kg, 100 mg/kg): significant changes at both 2 and 6 hour time points for Nqo1, Hmox1, and Txnrd1; also recorded: Osgin1 was significantly modulated only at the 2 hour time point
Relationship of MMF exposure (10 minutes) and pharmacodynamic response (2 or 6 hours) ([3]; forebrain, kidney and spleen, PO 100 mg/kg and IV 30 mg/kg): clear positive correlation in MMF exposure and pharmacodynamic response
